Laboratory results taken from patent US11242337B2, “Compounds useful for treating gastrointestinal tract disorders” (Ardelyx, Inc., priority 2017, dated 2022).

Tests used:
NHE3 [1] = target: T1, NHE3 (Homo sapiens, UniProt P48764); experiment: Cell-based assay of NHE-3 activity (pre-incubation inhibition), human; conditions: human Preincubation
T1 construct: expressed in transfected cells
T1 sequence (P48764 26-834): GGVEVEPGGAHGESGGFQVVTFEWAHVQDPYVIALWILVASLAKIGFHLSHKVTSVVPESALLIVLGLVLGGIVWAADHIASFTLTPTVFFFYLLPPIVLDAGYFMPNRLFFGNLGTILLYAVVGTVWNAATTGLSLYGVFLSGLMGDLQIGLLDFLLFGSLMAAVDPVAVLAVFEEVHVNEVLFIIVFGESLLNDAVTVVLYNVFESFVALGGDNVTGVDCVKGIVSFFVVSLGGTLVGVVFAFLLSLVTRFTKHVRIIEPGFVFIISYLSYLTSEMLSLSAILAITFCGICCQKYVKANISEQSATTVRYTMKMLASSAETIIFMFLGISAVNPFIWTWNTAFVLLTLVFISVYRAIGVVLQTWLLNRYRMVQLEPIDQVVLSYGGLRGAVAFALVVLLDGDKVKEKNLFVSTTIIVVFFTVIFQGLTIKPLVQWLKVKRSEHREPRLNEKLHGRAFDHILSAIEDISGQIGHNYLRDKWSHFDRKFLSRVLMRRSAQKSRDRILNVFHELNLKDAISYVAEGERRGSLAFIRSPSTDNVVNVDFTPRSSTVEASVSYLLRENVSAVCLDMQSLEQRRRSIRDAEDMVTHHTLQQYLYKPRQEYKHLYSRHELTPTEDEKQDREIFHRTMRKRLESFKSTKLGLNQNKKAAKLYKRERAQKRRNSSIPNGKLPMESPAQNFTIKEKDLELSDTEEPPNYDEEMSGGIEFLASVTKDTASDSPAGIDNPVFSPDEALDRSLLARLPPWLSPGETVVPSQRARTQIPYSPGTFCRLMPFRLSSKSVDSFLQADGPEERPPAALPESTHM
T1 sequence (Q99653 2-195 partner limits assumed): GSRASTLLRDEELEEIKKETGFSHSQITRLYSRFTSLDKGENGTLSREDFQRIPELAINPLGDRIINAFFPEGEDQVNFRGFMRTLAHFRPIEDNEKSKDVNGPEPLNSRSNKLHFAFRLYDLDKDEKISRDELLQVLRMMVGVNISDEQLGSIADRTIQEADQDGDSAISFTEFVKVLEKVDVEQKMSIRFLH
Method in brief: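 PS120 fibroblasts stably expressing human NHE3 and NHERF2, loaded 30 min at 37 °C with 5 μM BCECF-AM in NH4Cl buffer, then acidified 10 min at room temperature in Na+-free buffer with 0–30 μM compound. Initial rate of BCECF fluorescence ratio change (FLIPR) per minute taken as Na+/H+ activity.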

NHE3 [2] = target: T1, NHE3; experiment: Cell-based assay of NHE-3 activity (persistent inhibition), human; conditions: human Persistence, 60 min incubation then washout
Method in brief: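 PS120 fibroblasts expressing human NHE3 with NHERF2 exposed to 0-30 μM compound for 60 min at RT, then washed out; cells acid-loaded by NH4Cl prepulse with BCECF-AM and Na+-free buffer. Na+-driven pH recovery started 10 min post-washout; initial rate of BCECF ratio change (FLIPR) taken as activity.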

| Compound | % inhibition (NHE3 [1]) | pIC50 (NHE3 [1]; 0-30 μM test compound) | % inhibition (NHE3 [2]) | pIC50 (NHE3 [2]) | IC50 (NHE3 [2]) [nM] | IC50 (NHE3 [1]; 0-30 μM test compound) [nM] |
| --- | --- | --- | --- | --- | --- | --- |
| CN(C)[C@H]1Cc2c(Cl)cc(Cl)cc2[C@@H]1Oc1c(F)cc(S(=O)(=O)NCCOCCOCCNC(=O)NCCCCNC(=O)NCCOCCOCCNS(=O)(=O)c2cc(F)c(O[C@H]3c4cc(Cl)cc(Cl)c4C[C@@H]3N(C)C)c(F)c2)cc1F [Example 86] | C (>70%) | C (NHE3 pIC50 > 7) | C (>70%) | C (NHE3 pIC50 > 7) |  |  |
| Cc1cc(O[C@H]2c3cc(Cl)cc(Cl)c3C[C@@H]2N2CCC[C@@H](N)C2)c(F)cc1S(=O)(=O)NCCOCCOCCNC(=O)NCCCCNC(=O)NCCOCCOCCNS(=O)(=O)c1cc(F)c(O[C@H]2c3cc(Cl)cc(Cl)c3C[C@@H]2N2CCC[C@@H](N)C2)cc1C [Example 87, 3-[2-(2-[2-[(4-[[(1S,2S)-2-[(3R)-3-Aminopiperidin-1-yl]-4,6-dichloro-2,3-dihydro-1H-inden-1-yl]oxy]-5-fluoro-2-methylbenzene)sulfonamido]ethoxy]ethoxy)ethyl]-1-[4-([[2-(2-[2-[(4-[[(1S,2S)-2-[(3R)-3-aminopiperidin-1-yl]-4,6-dichloro-2,3-dihydro-1H-inden-1-yl]oxy]-5-fluoro-2-methylbenzene)sulfonamido]ethoxy]ethoxy)ethyl]carbamoyl]amino)butyl]urea; bis(trifluoroacetic acid)] | C (>70%) |  | C (>70%) |  |  |  |
| Cc1cc(S(=O)(=O)NCCOCCOCCNC(=O)NCCCCNC(=O)NCCOCCOCCNS(=O)(=O)c2cc(C)c(O[C@H]3c4cc(Cl)cc(Cl)c4C[C@@H]3N3CCC[C@@H](N)C3)cc2F)c(F)cc1O[C@H]1c2cc(Cl)cc(Cl)c2C[C@@H]1N1CCC[C@@H](N)C1 [Example 89, 3-[2-(2-[2-[(4-[[(1S,2S)-2-[(3R)-3-Aminopiperidin-1-yl]-4,6-dichloro-2,3-dihydro-1H-inden-1-yl]oxy]-2-fluoro-5-methylbenzene)sulfonamido]ethoxy]ethoxy)ethyl]-1-[4-([[2-(2-[2-[(4-[[(1S,2S)-2-[(3R)-3-aminopiperidin-1-yl]-4,6-dichloro-2,3-dihydro-1H-inden-1-yl]oxy]-2-fluoro-5-methylbenzene)sulfonamido]ethoxy]ethoxy)ethyl]carbamoyl]amino)butyl]urea; bis(trifluoroacetic acid)] | C (>70%) |  | C (>70%) |  |  |  |
| Cc1cc(S(=O)(=O)NCCOCCOCCNC(=O)NCCCCNC(=O)NCCOCCOCCNS(=O)(=O)c2cc(C)c(O[C@H]3c4cc(Cl)cc(Cl)c4C[C@@H]3N(C)C)cc2F)c(F)cc1O[C@H]1c2cc(Cl)cc(Cl)c2C[C@@H]1N(C)C [Example 90, 3-[2-(2-[2-[(4-[[(1S,2S)-4,6-Dichloro-2-(dimethylamino)-2,3-dihydro-1H-inden-1-yl]oxy]-2-fluoro-5-methylbenzene)sulfonamido]ethoxy]ethoxy)ethyl]-1-[4-([[2-(2-[2-[(4-[[(1S,2S)-4,6-dichloro-2-(dimethylamino)-2,3-dihydro-1H-inden-1-yl]oxy]-2-fluoro-5-methylbenzene)sulfonamido]ethoxy]ethoxy)ethyl]carbamoyl]amino)butyl]urea; bis(trifluoroacetic acid)] | C (>70%) | C (NHE3 pIC50 > 7) | C (>70%) |  | 100 to 1000 |  |
| Cc1cc(S(=O)(=O)N[C@H]2CCN(CCOCCNC(=O)NCCCCNC(=O)NCCOCCN3CC[C@H](NS(=O)(=O)c4ccc(O[C@H]5c6cc(Cl)cc(C#N)c6C[C@@H]5N(C)C)c(C)c4)C3=O)C2=O)ccc1O[C@H]1c2cc(Cl)cc(C#N)c2C[C@@H]1N(C)C [Example 92, 1-(2-[2-[(3S)-3-[(4-[[(1S,2S)-6-Chloro-4-cyano-2-(dimethylamino)-2,3-dihydro-1H-inden-1-yl]oxy]-3-methylbenzene)sulfonamido]-2-oxopyrrolidin-1-yl]ethoxy]ethyl)-3-(4-[[(2-[2-[(3S)-3-[(4-[[(1S,2S)-6-chloro-4-cyano-2-(dimethylamino)-2,3-dihydro-1H-inden-1-yl]oxy]-3-methylbenzene)sulfonamido]-2-oxopyrrolidin-1-yl]ethoxy]ethyl)carbamoyl]amino]butyl)urea; bis(trifluoroacetic acid)] | C (>70%) | C (NHE3 pIC50 > 7) | C (>70%) | C (NHE3 pIC50 > 7) |  |  |
| N[C@@H]1CCCN([C@H]2Cc3c(Cl)cc(Cl)cc3[C@@H]2Oc2ccc(S(=O)(=O)N3CC[C@@H](OCCOCCNC(=O)NCCCCNC(=O)NCCOCCO[C@@H]4CCN(S(=O)(=O)c5ccc(O[C@H]6c7cc(Cl)cc(Cl)c7C[C@@H]6N6CCC[C@@H](N)C6)cc5)C4)C3)cc2)C1 [Example 93, 3-[2-(2-[[(3R)-1-[(4-[[(1S,2S)-2-[(3R)-3-Aminopiperidin-1-yl]-4,6-dichloro-2,3-dihydro-1H-inden-1-yl]oxy]benzene)sulfonyl]pyrrolidin-3-yl]oxy]ethoxy)ethyl]-1-[4-([[2-(2-[[(3R)-1-[(4-[[(1S,2S)-2-[(3R)-3-aminopiperidin-1-yl]-4,6-dichloro-2,3-dihydro-1H-inden-1-yl]oxy]benzene)sulfonyl]pyrrolidin-3-yl]oxy]ethoxy)ethyl]carbamoyl]amino)butyl]urea] | C (>70%) |  | C (>70%) |  | < 100 | < 100 |
| N[C@@H]1CCCN([C@H]2Cc3c(Cl)cc(Cl)cc3[C@@H]2Oc2ccc(S(=O)(=O)N3CC[C@H](OCCOCCNC(=O)NCCCCNC(=O)NCCOCCO[C@H]4CCN(S(=O)(=O)c5ccc(O[C@H]6c7cc(Cl)cc(Cl)c7C[C@@H]6N6CCC[C@@H](N)C6)cc5)C4)C3)cc2)C1 [Example 94, 3-[2-(2-[[(3S)-1-[(4-[[(1S,2S)-2-[(3R)-3-Aminopiperidin-1-yl]-4,6-dichloro-2,3-dihydro-1H-inden-1-yl]oxy]benzene)sulfonyl]pyrrolidin-3-yl]oxy]ethoxy)ethyl]-1-[4-([[2-(2-[[(3S)-1-[(4-[[(1S,2S)-2-[(3R)-3-aminopiperidin-1-yl]-4,6-dichloro-2,3-dihydro-1H-inden-1-yl]oxy]benzene)sulfonyl]pyrrolidin-3-yl]oxy]ethoxy)ethyl]carbamoyl]amino)butyl]urea] | C (>70%) | C (NHE3 pIC50 > 7) | C (>70%) | C (NHE3 pIC50 > 7) |  |  |
| N[C@@H]1CCCN([C@H]2Cc3c(Cl)cc(Cl)cc3[C@@H]2Oc2ccc(S(=O)(=O)N3CCC(OCCOCCNC(=O)NCCCCNC(=O)NCCOCCOC4CCN(S(=O)(=O)c5ccc(O[C@H]6c7cc(Cl)cc(Cl)c7C[C@@H]6N6CCC[C@@H](N)C6)cc5)CC4)CC3)cc2)C1 [Example 95, 3-[2-[2-([1-[(4-[[(1S,2S)-2-[(3R)-3-Aminopiperidin-1-yl]-4,6-dichloro-2,3-dihydro-1H-inden-1-yl]oxy]benzene)sulfonyl]piperidin-4-yl]oxy)ethoxy]ethyl]-1-[4-[([2-[2-([1-[(4-[[(1S,2S)-2-[(3R)-3-aminopiperidin-1-yl]-4,6-dichloro-2,3-dihydro-1H-inden-1-yl]oxy]benzene)sulfonyl]piperidin-4-yl]oxy)ethoxy]ethyl]carbamoyl)amino]butyl]urea] | C (>70%) | C (NHE3 pIC50 > 7) | C (>70%) | C (NHE3 pIC50 > 7) |  |  |
